Results: ChEMBL document CHEMBL5331129, “Discovery of NAFLD-Improving Agents by Promoting the Degradation of Keap1” (J Med Chem, 2023)
The source made the active and inactive calls. The rule behind the calls is not given here.

Experiments:
[1] = target: Protein cereblon/Kelch-like ECH-associated protein 1 (Mus musculus) (UniProt Q9Z2X8+Q8C7D2); assay: PROTAC activity at CRBN/Keap1 in mouse AML12 cells assessed as degradation of Keap1 protein at 1 uM incubated for 24 hrs by Western blotting analysis; format: cell-based
Mus musculus [2] = assay: Antioxidant activity against MCD diet-induced oxidative stress in C57Bl/6 mouse model of NAFLD assessed as upregulation of liver HO-1 protein expression level at 1 mg/kg,ip administrated for 4 weeks by immunohistochemical staining assay; format: functional, organism-based
Mus musculus [3] = assay: Antioxidant activity against MCD diet-induced oxidative stress in C57Bl/6 mouse model of NAFLD assessed as downregulation of liver Keap1 protein expression level at 1 mg/kg,ip administrated for 4 weeks by immunofluorescence staining analysis; format: functional, organism-based
[4] = Acute toxicity in zebrafish assessed as death at 5 uM observed at 120 hrs post fertilization; design: species or system Danio rerio; settings: in vivo
Mus musculus [5] = assay: Antioxidant activity against MCD diet-induced oxidative stress in C57Bl/6 mouse model of NAFLD assessed as upregulation of liver Nrf2 protein expression level at 1 mg/kg,ip administrated for 4 weeks by immunofluorescence staining analysis; format: functional, organism-based
AML12 [6] = assay: Antioxidant activity against free fatty acid induced oxidative stress in mouse AML12 cells assessed as decrease in ROS level incubated for 24 hrs; format: functional, cell-based
[7] = Acute toxicity in C57BL/6 mouse assessed as histopathological change in lung at 20 mg/kg,ip qd administrated for 3 consecutive days and measured on day 4 by hematoxylin and eosin staining based assay; format: organism-based; settings: in vivo
[8] = target: Kelch-like ECH-associated protein 1 (Homo sapiens, UniProt Q14145); assay: Binding affinity to Keap1 (unknown origin) assessed as dissociation constant incubated for 200 sec by sensor chip immobilization based surface plasmon resonance analysis
[9] = Acute toxicity in C57BL/6 mouse assessed as histopathological change in heart at 20 mg/kg,ip qd administrated for 3 consecutive days and measured on day 4 by hematoxylin and eosin staining based assay; format: organism-based; settings: in vivo
Mus musculus [10] = assay: Antioxidant activity against MCD diet-induced oxidative stress in C57Bl/6 mouse model of NAFLD assessed as increase in SOD level in liver at 1 mg/kg,ip administrated for 4 weeks; format: functional, organism-based
[11] = Acute toxicity in C57BL/6 mouse assessed as histopathological change in spleen at 20 mg/kg,ip qd administrated for 3 consecutive days and measured on day 4 by hematoxylin and eosin staining based assay; format: organism-based; settings: in vivo
[12] = Acute toxicity in C57BL/6 mouse assessed as histopathological change in liver at 20 mg/kg,ip qd administrated for 3 consecutive days and measured on day 4 by hematoxylin and eosin staining based assay; format: organism-based; settings: in vivo
Mus musculus [13] = assay: Antioxidant activity against MCD diet-induced oxidative stress in C57Bl/6 mouse model of NAFLD assessed as reduction of serum TG level at 1 mg/kg,ip administrated for 4 weeks; format: functional, organism-based
Mus musculus [14] = assay: Antioxidant activity against MCD diet-induced oxidative stress in C57Bl/6 mouse model of NAFLD assessed as downregulation of liver Keap1 protein expression level at 1 mg/kg,ip administrated for 4 weeks by immunoblot analysis; format: functional, organism-based
Mus musculus [15] = assay: Antioxidant activity against MCD diet-induced oxidative stress in C57Bl/6 mouse model of NAFLD assessed as decrease in histopathological change in liver at 1 mg/kg,ip administrated for 4 weeks by hematoxylin and eosin staining based assay; format: functional, organism-based
[16] = Acute toxicity in C57BL/6 mouse assessed as visceral damage at 20 mg/kg,ip qd administrated for 3 consecutive days and measured on day 4 by hematoxylin and eosin staining based assay; format: organism-based; settings: in vivo
[17] = Acute toxicity in C57BL/6 mouse assessed as visceral cellular damage at 20 mg/kg,ip qd administrated for 3 consecutive days and measured on day 4 by hematoxylin and eosin staining based assay; format: organism-based; settings: in vivo
Mus musculus [18] = assay: Antioxidant activity against MCD diet-induced oxidative stress in C57Bl/6 mouse model of NAFLD assessed as increase in GSH level in liver at 1 mg/kg,ip administrated for 4 weeks; format: functional, organism-based
Mus musculus [19] = assay: Antioxidant activity against MCD diet-induced oxidative stress in C57Bl/6 mouse model of NAFLD assessed as upregulation of liver NQO1 protein expression level at 1 mg/kg,ip administrated for 4 weeks by immunohistochemical staining assay; format: functional, organism-based
[20] = Acute toxicity in zebrafish assessed as death at 10 uM observed at 72 hrs post fertilization; design: species or system Danio rerio; settings: in vivo
Mus musculus [21] = assay: Antioxidant activity against MCD diet-induced oxidative stress in C57Bl/6 mouse model of NAFLD assessed as upregulation of liver Nrf2 protein expression level at 1 mg/kg,ip administrated for 4 weeks by immunoblot analysis; format: functional, organism-based
AML12 [22] = assay: Antioxidant activity against free fatty acid induced oxidative stress in mouse AML12 cells assessed as upregulation of HO-1 protein expression level incubated for 24 hrs by immunoblot analysis; format: functional, cell-based
Mus musculus [23] = assay: Antioxidant activity against MCD diet-induced oxidative stress in C57Bl/6 mouse model of NAFLD assessed as decrease in liver ROS level at 1 mg/kg,ip administrated for 4 weeks by immunostaining analysis; format: functional, organism-based
AML12 [24] = assay: Antioxidant activity against free fatty acid induced oxidative stress in mouse AML12 cells assessed as increase in SOD level; format: functional, cell-based
[25] = Acute toxicity in zebrafish assessed as pericardial edema at 5 uM observed at 120 hrs post fertilization; design: species or system Danio rerio; settings: in vivo
Mus musculus [26] = assay: Antioxidant activity against MCD diet-induced oxidative stress in C57Bl/6 mouse model of NAFLD assessed as downregulation of liver Keap1 protein expression level at 1 mg/kg,ip administrated for 4 weeks by immunohistochemical staining assay; format: functional, organism-based
[27] = Acute toxicity in zebrafish at < 2.5 uM observed at 120 hrs post fertilization; design: species or system Danio rerio; settings: in vivo
AML12 [28] = assay: Antioxidant activity against free fatty acid induced oxidative stress in mouse AML12 cells assessed as downregulation of Keap1 protein expression level incubated for 24 hrs by immunoblot analysis; format: functional, cell-based
AML12 [29] = assay: Antioxidant activity against free fatty acid induced oxidative stress in mouse AML12 cells assessed as upregulation of Nrf2 protein expression level incubated for 24 hrs by immunoblot analysis; format: functional, cell-based
AML12 [30] = assay: Antioxidant activity against free fatty acid induced oxidative stress in mouse AML12 cells assessed as increase in GSH level; format: functional, cell-based
[31] = Acute toxicity in C57BL/6 mouse assessed as visceral inflammatory cell infiltration at 20 mg/kg,ip qd administrated for 3 consecutive days and measured on day 4 by hematoxylin and eosin staining based assay; format: organism-based; settings: in vivo
Mus musculus [32] = assay: Antioxidant activity against MCD diet-induced oxidative stress in C57Bl/6 mouse model of NAFLD assessed as increase in CAT level in liver at 1 mg/kg,ip administrated for 4 weeks; format: functional, organism-based
AML12 [33] = assay: Antioxidant activity against free fatty acid induced oxidative stress in mouse AML12 cells assessed as upregulation of NQO1 protein expression level incubated for 24 hrs by immunoblot analysis; format: functional, cell-based

Protein cereblon/Kelch-like ECH-associated protein 1 (Mus musculus), sequence (Q8C7D2 whole entry, looked up): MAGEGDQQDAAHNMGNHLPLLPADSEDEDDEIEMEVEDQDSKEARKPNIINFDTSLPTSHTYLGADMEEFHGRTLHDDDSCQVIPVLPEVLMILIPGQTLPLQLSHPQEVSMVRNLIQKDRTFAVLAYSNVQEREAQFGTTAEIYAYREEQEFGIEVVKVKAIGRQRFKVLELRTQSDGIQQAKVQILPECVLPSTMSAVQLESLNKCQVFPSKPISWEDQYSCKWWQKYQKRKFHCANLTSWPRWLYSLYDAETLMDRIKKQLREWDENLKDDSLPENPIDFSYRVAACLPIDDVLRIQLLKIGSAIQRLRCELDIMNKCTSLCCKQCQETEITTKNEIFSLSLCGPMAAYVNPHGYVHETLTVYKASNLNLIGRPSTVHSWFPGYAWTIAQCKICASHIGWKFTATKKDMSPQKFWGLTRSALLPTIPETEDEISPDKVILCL
Protein cereblon/Kelch-like ECH-associated protein 1 (Mus musculus), sequence (Q9Z2X8 whole entry, looked up): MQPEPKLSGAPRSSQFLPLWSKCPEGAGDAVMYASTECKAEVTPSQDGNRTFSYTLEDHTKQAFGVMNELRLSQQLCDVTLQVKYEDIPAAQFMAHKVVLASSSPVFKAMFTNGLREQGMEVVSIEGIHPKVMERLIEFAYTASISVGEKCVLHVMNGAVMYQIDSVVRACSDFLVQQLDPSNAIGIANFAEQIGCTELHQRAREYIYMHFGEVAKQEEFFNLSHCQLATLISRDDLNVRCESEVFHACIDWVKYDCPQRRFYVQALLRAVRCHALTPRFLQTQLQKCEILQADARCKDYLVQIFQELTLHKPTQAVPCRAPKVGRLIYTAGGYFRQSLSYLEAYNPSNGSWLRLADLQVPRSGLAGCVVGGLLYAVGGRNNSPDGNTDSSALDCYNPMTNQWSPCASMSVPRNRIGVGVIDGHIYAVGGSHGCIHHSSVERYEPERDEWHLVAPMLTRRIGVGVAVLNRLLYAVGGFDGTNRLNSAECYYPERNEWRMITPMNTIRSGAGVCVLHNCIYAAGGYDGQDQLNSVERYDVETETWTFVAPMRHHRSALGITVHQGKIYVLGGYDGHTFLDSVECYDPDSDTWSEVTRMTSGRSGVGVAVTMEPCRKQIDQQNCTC
Kelch-like ECH-associated protein 1, sequence (Q14145 whole entry): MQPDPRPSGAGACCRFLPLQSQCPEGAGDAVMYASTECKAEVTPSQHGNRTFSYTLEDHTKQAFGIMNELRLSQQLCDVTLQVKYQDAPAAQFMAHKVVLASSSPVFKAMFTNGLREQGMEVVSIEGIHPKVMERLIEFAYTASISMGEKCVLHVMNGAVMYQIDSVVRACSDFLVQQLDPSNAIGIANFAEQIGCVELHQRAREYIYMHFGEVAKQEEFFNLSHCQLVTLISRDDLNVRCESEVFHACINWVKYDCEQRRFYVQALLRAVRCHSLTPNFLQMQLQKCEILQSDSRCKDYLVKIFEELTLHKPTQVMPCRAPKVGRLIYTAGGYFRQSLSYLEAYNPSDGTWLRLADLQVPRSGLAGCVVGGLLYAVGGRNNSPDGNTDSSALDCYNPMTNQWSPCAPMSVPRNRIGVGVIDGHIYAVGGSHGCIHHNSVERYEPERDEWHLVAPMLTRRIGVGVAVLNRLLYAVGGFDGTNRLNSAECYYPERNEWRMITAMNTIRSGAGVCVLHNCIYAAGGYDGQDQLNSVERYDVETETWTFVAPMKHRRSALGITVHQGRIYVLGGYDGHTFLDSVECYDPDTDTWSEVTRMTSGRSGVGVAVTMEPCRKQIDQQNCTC

## Nc1cccc2c1C(=O)N(C1CCC(=O)NC1=O)C2=O (stereo not given)
[1]
  Activity: inactive

## CN1C(=O)CCC(N2C(=O)c3cccc(NCCCCCNC(=O)[C@]45CCC(C)(C)C[C@H]4[C@H]4C(=O)C=C6C7(C)C=C(C#N)C(=O)C(C)(C)[C@@H]7CC[C@@]6(C)[C@]4(C)CC5)c3C2=O)C1=O (single isomer, unassigned)
[1]
  Activity: inactive

## CC1(C)CC[C@]2(C(=O)O)CC[C@]3(C)[C@H](C(=O)C=C4[C@@]5(C)C=C(C#N)C(=O)C(C)(C)[C@@H]5CC[C@]43C)[C@@H]2C1 [BARDOXOLONE]
Mus musculus [2]
  Activity: inactive
Mus musculus [3]
  Activity: inactive
[4]
  Activity: Toxic
Mus musculus [5]
  Activity: inactive
AML12 [6]
  Activity: Active
[7]
  Activity: Toxic
[8]
  Kd: 48.7 µM
[9]
  Activity: Toxic
Mus musculus [10]
  Activity: Active
[11]
  Activity: Toxic
[12]
  Activity: Toxic
Mus musculus [13]
  Activity: Active
Mus musculus [14]
  Activity: inactive
Mus musculus [15]
  Activity: Active
[16]
  Activity: Non-Toxic
[17]
  Activity: Toxic
Mus musculus [18]
  Activity: Active
Mus musculus [19]
  Activity: inactive
[20]
  Activity: Toxic
Mus musculus [21]
  Activity: inactive
[1]
  Activity: inactive
AML12 [22]
  Activity: inactive
Mus musculus [23]
  Activity: Active
AML12 [24]
  Activity: Active
[25]
  Activity: Toxic
Mus musculus [26]
  Activity: inactive
[27]
  Activity: Non-Toxic
AML12 [28]
  Activity: inactive
AML12 [29]
  Activity: inactive
AML12 [30]
  Activity: inactive
[31]
  Activity: Toxic
Mus musculus [32]
  Activity: Active
AML12 [33]
  Activity: inactive
